This experiment relates to MV-4-11 cells. The experiment is described as follows: Gene expression microarray analysis (Affymetrix PrimeView) and GSEA. The following applies: MV-4-11 cells, 48 hours. The experiment is classed as cell-based, human. Further details: RFU PODN (11730768_x_at) / Fold change /veh PODN (11730768_x_at) / RFU LINC00158 (11744669_a_at) / Fold change /veh LINC00158 (11744669_a_at) / RFU DUSP10 (11751237_a_at) / Fold change /veh DUSP10 (11751237_a_at) / RFU ID3 (11757404_x_at) / Fold change /veh ID3 (11757404_x_at) / RFU PLEKHG5 (11737974_s_at) / Fold change /veh PLEKHG5 (11737974_s_at) / RFU LRRC4B (11730491_at) / Fold change /veh LRRC4B (11730491_at) / RFU GIMAP4 (11747438_a_at) / Fold change /veh GIMAP4 (11747438_a_at) / RFU KRT8 (11758183_x_at) / Fold change /veh KRT8 (11758183_x_at) / RFU CNN1 (11734310_a_at) / Fold change /veh CNN1 (11734310_a_at) / RFU VPS37D (11726825_at) / Fold change /veh VPS37D (11726825_at) / RFU C10orf10 (11716522_x_at) / Fold change /veh C10orf10 (11716522_x_at) / RFU KIR2DL2 /// KIR2DL4 /// KIR2DL5A /// KIR2DL5B /// KIR2DS1 /// KIR2DS2 /// KIR2DS3 /// KIR2DS4 /// KIR3DL3 /// KIR3DL3 /// KIR3DS1 (11738374_at) / Fold change /veh KIR2DL2 /// KIR2DL4 /// KIR2DL5A /// KIR2DL5B /// KIR2DS1 /// KIR2DS2 /// KIR2DS3 /// KIR2DS4 /// KIR3DL3 /// KIR3DL3 /// KIR3DS1 (11738374_at) / RFU C1QL1 (11718748_at) / Fold change /veh C1QL1 (11718748_at) / RFU TMPRSS4 (11747572_a_at) / Fold change /veh TMPRSS4 (11747572_a_at) / RFU HAMP (11756126_x_at) / Fold change /veh HAMP (11756126_x_at) / RFU RNFT2 (11725882_a_at) / Fold change /veh RNFT2 (11725882_a_at) / RFU NR4A2 (11747474_a_at) / Fold change /veh NR4A2 (11747474_a_at) / RFU ABCC12 (11746883_a_at) / Fold change /veh ABCC12 (11746883_a_at) / RFU TMEM136 (11760407_x_at) / Fold change /veh TMEM136 (11760407_x_at) / RFU CLDN22 /// WWC2 (11732394_at) / Fold change /veh CLDN22 /// WWC2 (11732394_at) / RFU HLA-DPB1 (11760878_x_at) / Fold change /veh HLA-DPB1 (11760878_x_at) / RFU SPINT1 (11716480_a_at) / Fold change /veh SPINT1 (11716480_a_at) / RFU GAP43 (11754022_s_at) / Fold change /veh GAP43 (11754022_s_at) / RFU A4GNT (11735810_at) / Fold change /veh A4GNT (11735810_at) / RFU PRB3 (11715151_x_at) / Fold change /veh PRB3 (11715151_x_at) / RFU TUBB4B (11761932_at) / Fold change /veh TUBB4B (11761932_at) / RFU CAPN14 (11732068_a_at) / Fold change /veh CAPN14 (11732068_a_at) / RFU TMCC2 (11721928_a_at) / Fold change /veh TMCC2 (11721928_a_at) / RFU IRGQ (11745062_a_at) / Fold change /veh IRGQ (11745062_a_at) / RFU FAM174B (11720279_a_at) / Fold change /veh FAM174B (11720279_a_at) / RFU TMPRSS4 (11748680_a_at) / Fold change /veh TMPRSS4 (11748680_a_at) / RFU FAM212B (11763350_a_at) / Fold change /veh FAM212B (11763350_a_at) / RFU PLEKHG5 (11743358_a_at) / Fold change /veh PLEKHG5 (11743358_a_at) / RFU ZSCAN30 (11745921_a_at) / Fold change /veh ZSCAN30 (11745921_a_at) / RFU CMKLR1 (11741424_a_at) / Fold change /veh CMKLR1 (11741424_a_at) / RFU LOC101060620 /// MAPK8IP1 (11723275_at) / Fold change /veh LOC101060620 /// MAPK8IP1 (11723275_at) / RFU SPTSSB (11747773_x_at) / Fold change /veh SPTSSB (11747773_x_at) / RFU PRSS12 (11739890_at) / Fold change /veh PRSS12 (11739890_at) / RFU BIN1 (11741810_x_at) / Fold change /veh BIN1 (11741810_x_at) / RFU WNT11 (11732464_a_at) / Fold change /veh WNT11 (11732464_a_at) / RFU C10orf10 (11716521_a_at) / Fold change /veh C10orf10 (11716521_a_at) / RFU C5orf56 (11738089_at) / Fold change /veh C5orf56 (11738089_at) / RFU CYB561 (11721691_x_at) / Fold change /veh CYB561 (11721691_x_at) / RFU ANKRD19P (11752326_a_at) / Fold change /veh ANKRD19P (11752326_a_at) / RFU OR2T12 /// OR2T33 /// OR2T8 (11738714_s_at) / Fold change /veh OR2T12 /// OR2T33 /// OR2T8 (11738714_s_at) / RFU VCAN (11748164_a_at) / Fold change /veh VCAN (11748164_a_at) / RFU JSRP1 (11732532_at) / Fold change /veh JSRP1 (11732532_at) / RFU KRTAP10-11 (11738290_x_at) / Fold change /veh KRTAP10-11 (11738290_x_at) / RFU MYO3A (11730013_a_at) / Fold change /veh MYO3A (11730013_a_at) / RFU EBF3 (11725865_a_at) / Fold change /veh EBF3 (11725865_a_at) / RFU CAMK2N1 (11719241_x_at) / Fold change /veh CAMK2N1 (11719241_x_at) / RFU C5orf56 (11738088_a_at) / Fold change /veh C5orf56 (11738088_a_at) / RFU OLFML3 (11715873_a_at) / Fold change /veh OLFML3 (11715873_a_at) / RFU LOC100653217 /// NTM (11731650_a_at) / Fold change /veh LOC100653217 /// NTM (11731650_a_at) / RFU MAPK11 (11762145_a_at) / Fold change /veh MAPK11 (11762145_a_at) / RFU FIZ1 (11724087_x_at) / Fold change /veh FIZ1 (11724087_x_at) / RFU OASL (11726364_x_at) / Fold change /veh OASL (11726364_x_at) / RFU SOX15 (11748057_x_at) / Fold change /veh SOX15 (11748057_x_at) / RFU CD79A (11719716_a_at) / Fold change /veh CD79A (11719716_a_at) / RFU HIST1H1D (11736915_at) / Fold change /veh HIST1H1D (11736915_at) / RFU CASKIN2 (11723855_a_at) / Fold change /veh CASKIN2 (11723855_a_at) / RFU LOC730098 (11760151_x_at) / Fold change /veh LOC730098 (11760151_x_at) / RFU OR4N2 (11742367_at) / Fold change /veh OR4N2 (11742367_at) / RFU PRRT2 (11749266_a_at) / Fold change /veh PRRT2 (11749266_a_at) / RFU SNX32 (11753110_a_at) / Fold change /veh SNX32 (11753110_a_at) / RFU CDHR5 (11726645_a_at) / Fold change /veh CDHR5 (11726645_a_at) / RFU RCAN1 (11760418_a_at) / Fold change /veh RCAN1 (11760418_a_at) / RFU FAM167A (11723789_a_at) / Fold change /veh FAM167A (11723789_a_at) / RFU FAM26E (11764081_at) / Fold change /veh FAM26E (11764081_at) / RFU ISYNA1 (11749810_s_at) / Fold change /veh ISYNA1 (11749810_s_at) / RFU ACY1 (11761880_at) / Fold change /veh ACY1 (11761880_at) / RFU 11764098_at / Fold change /veh 11764098_at / RFU SAMD14 (11745864_x_at) / Fold change /veh SAMD14 (11745864_x_at) / RFU NPB (11741838_a_at) / Fold change /veh NPB (11741838_a_at) / RFU TMPRSS6 (11731388_a_at) / Fold change /veh TMPRSS6 (11731388_a_at) / RFU KRTAP10-2 (11738614_at) / Fold change /veh KRTAP10-2 (11738614_at) / RFU ARHGAP8 /// PRR5-ARHGAP8 (11727945_x_at) / Fold change /veh ARHGAP8 /// PRR5-ARHGAP8 (11727945_x_at) / RFU KRTAP5-7 /// NADSYN1 (11734609_at) / Fold change /veh KRTAP5-7 /// NADSYN1 (11734609_at) / RFU RASL12 (11751679_a_at) / Fold change /veh RASL12 (11751679_a_at) / RFU CDKN2B (11736163_a_at) / Fold change /veh CDKN2B (11736163_a_at) / RFU PRF1 (11729649_at) / Fold change /veh PRF1 (11729649_at) / RFU, ZNF638 /// ZNF638-IT1 / Fold change vs veh, ZNF638 /// ZNF638-IT1 / RFU, PANK3 / Fold change vs veh, PANK3 / RFU, SH3YL1 / Fold change vs veh, SH3YL1 / RFU, ZEB2 / Fold change vs veh, ZEB2 / RFU, NRIP1 / Fold change vs veh, NRIP1 / RFU, PTTG1IP / Fold change vs veh, PTTG1IP / RFU, CAPN2 / Fold change vs veh, CAPN2 / RFU, MED14 / Fold change vs veh, MED14 / RFU, SNORA58 / Fold change vs veh, SNORA58 / RFU, C1orf63 / Fold change vs veh, C1orf63 / RFU, LRRFIP1 / Fold change vs veh, LRRFIP1 / RFU, NDUFAF7 / Fold change vs veh, NDUFAF7 / RFU, SLC12A2 / Fold change vs veh, SLC12A2 / RFU, IBTK / Fold change vs veh, IBTK / RFU, ESF1 / Fold change vs veh, ESF1 / Fold change vs veh, TMEM50B / RFU, TAOK1 / Fold change vs veh, TAOK1 / RFU, ACBD3 / Fold change vs veh, ACBD3 / RFU, TMA16 / Fold change vs veh, TMA16 / RFU, RWDD3 / Fold change vs veh, RWDD3 / RFU, BCAT1 / Fold change vs veh, BCAT1 / RFU, EDEM3 / Fold change vs veh, EDEM3 / RFU, TMEM33 / Fold change vs veh, TMEM33 / RFU, WDR75 / Fold change vs veh, WDR75 / RFU, AHCTF1 / Fold change vs veh, AHCTF1 / RFU, TFRC / Fold change vs veh, TFRC / RFU, ZDHHC17 / Fold change vs veh, ZDHHC17 / RFU, NOM1 / Fold change vs veh, NOM1 / RFU, ARL8B / Fold change vs veh, ARL8B / RFU, ZBTB11 / Fold change vs veh, ZBTB11 / RFU, TAMM41 / Fold change vs veh, TAMM41 / RFU, KIAA1704 /// LOC100996395 / Fold change vs veh, KIAA1704 /// LOC100996395 / RFU, ING1 / Fold change vs veh, ING1 / RFU, TRMT61B / Fold change vs veh, TRMT61B / RFU, FUBP3 / Fold change vs veh, FUBP3 / RFU, TP53 / Fold change vs veh, TP53 / RFU, TNKS2 / Fold change vs veh, TNKS2 / RFU, ZFP14 / Fold change vs veh, ZFP14 / RFU, ACTR2 / Fold change vs veh, ACTR2 / RFU, PPP3R1 / Fold change vs veh, PPP3R1 / RFU, PIK3R1 / Fold change vs veh, PIK3R1 / RFU, HNRNPA1 / Fold change vs veh, HNRNPA1 / RFU, RNF170 / Fold change vs veh, RNF170 / RFU, ZNF28 / Fold change vs veh, ZNF28 / RFU, RNGTT / Fold change vs veh, RNGTT / RFU, OGT / Fold change vs veh, OGT / RFU, BRD1 / Fold change vs veh, BRD1 / RFU, MARS / Fold change vs veh, MARS / RFU, ZNF655 / Fold change vs veh, ZNF655 / RFU, FAHD1 / Fold change vs veh, FAHD1 / RFU, BDP1 / Fold change vs veh, BDP1 / RFU, LRRCC1 / Fold change vs veh, LRRCC1 / RFU, ARID1A / Fold change vs veh, ARID1A / RFU, ZNF146 / Fold change vs veh, ZNF146 / RFU, ZNF330 / Fold change vs veh, ZNF330 / RFU, GPN3 / Fold change vs veh, GPN3 / RFU, C9orf123 / Fold change vs veh, C9orf123 / RFU, N4BP2L2 / Fold change vs veh, N4BP2L2 / RFU, ARFIP1 / Fold change vs veh, ARFIP1 / RFU, FAM179B / Fold change vs veh, FAM179B / RFU, BCL10 / Fold change vs veh, BCL10 / RFU, UHRF1BP1L / Fold change vs veh, UHRF1BP1L / RFU, BET1 / Fold change vs veh, BET1 / RFU, CNOT2 / Fold change vs veh, CNOT2 / RFU, ZNF268 / Fold change vs veh, ZNF268 / Fold change vs veh, ZNF507 / RFU, DGCR2 / Fold change vs veh, DGCR2 / RFU, WDSUB1 / Fold change vs veh, WDSUB1 / Fold change vs veh, HSP90B1 /// MIR3652 / RFU, ADSS / Fold change vs veh, ADSS / RFU, GK / Fold change vs veh, GK / RFU, ZNF148 / Fold change vs veh, ZNF148 / RFU, TAF9 / Fold change vs veh, TAF9 / RFU, SLC1A5 / Fold change vs veh, SLC1A5 / RFU, SLMO2 / Fold change vs veh, SLMO2 / RFU, ABCC4 / Fold change vs veh, ABCC4 / RFU, LOC101060439 /// RAP1B / Fold change vs veh, LOC101060439 /// RAP1B / RFU, RFX7 / Fold change vs veh, RFX7 / RFU, GTPBP10 / Fold change vs veh, GTPBP10 / RFU, CNEP1R1 / Fold change vs veh, CNEP1R1 / RFU, BIVM-ERCC5 /// ERCC5 / Fold change vs veh, BIVM-ERCC5 /// ERCC5 / RFU, ILF3 / Fold change vs veh, ILF3 / RFU 11762660_at / Fold change /veh 11762660_at / RFU VCAN (11757783_s_at) / Fold change /veh VCAN (11757783_s_at) / RFU DDX43 (11728927_at) / Fold change /veh DDX43 (11728927_at) / RFU KRT8 (11758188_x_at) / Fold change /veh KRT8 (11758188_x_at) / RFU NKD1 (11759106_at) / Fold change /veh NKD1 (11759106_at) / RFU SRD5A1 (11742802_a_at) / Fold change /veh SRD5A1 (11742802_a_at) / RFU TPSAB1 /// TPSB2 (11721975_s_at) / Fold change /veh TPSAB1 /// TPSB2 (11721975_s_at) / RFU GSTM3 (11746129_a_at) / Fold change /veh GSTM3 (11746129_a_at) / RFU IL23R (11737362_x_at) / Fold change /veh IL23R (11737362_x_at) / RFU TMEM51 (11727254_a_at) / Fold change /veh TMEM51 (11727254_a_at) / RFU PIWIL2 (11732686_x_at) / Fold change /veh PIWIL2 (11732686_x_at) / RFU ORM1 (11744905_x_at) / Fold change /veh ORM1 (11744905_x_at) / RFU CCDC152 (11743942_at) / Fold change /veh CCDC152 (11743942_at) / RFU ECM1 (11717891_a_at) / Fold change /veh ECM1 (11717891_a_at) / RFU IL23R (11748794_a_at) / Fold change /veh IL23R (11748794_a_at) / RFU TNFAIP8L3 (11732012_x_at) / Fold change /veh TNFAIP8L3 (11732012_x_at) / RFU MBOAT4 (11741988_at) / Fold change /veh MBOAT4 (11741988_at) / RFU 11764193_at / Fold change /veh 11764193_at / RFU TMEM53 (11763286_at) / Fold change /veh TMEM53 (11763286_at) / RFU MAGEB2 (11727129_at) / Fold change /veh MAGEB2 (11727129_at) / RFU TMEM200A (11744735_a_at) / Fold change /veh TMEM200A (11744735_a_at) / RFU CCDC152 (11751479_a_at) / Fold change /veh CCDC152 (11751479_a_at) / RFU FAM211A (11726209_a_at) / Fold change /veh FAM211A (11726209_a_at) / RFU RGS16 (11746705_a_at) / Fold change /veh RGS16 (11746705_a_at) / RFU VCAN (11755009_s_at) / Fold change /veh VCAN (11755009_s_at) / RFU RHOB (11743442_s_at) / Fold change /veh RHOB (11743442_s_at) / RFU RGS16 (11720943_a_at) / Fold change /veh RGS16 (11720943_a_at) / RFU RGS16 (11720944_at) / Fold change /veh RGS16 (11720944_at) / RFU, VPS4B / Fold change vs veh, VPS4B / RFU, CREB1 / Fold change vs veh, CREB1 / RFU, DNAJC13 / Fold change vs veh, DNAJC13 / RFU, GNAQ / Fold change vs veh, GNAQ / RFU, CDK5R1 / Fold change vs veh, CDK5R1 / RFU, ZRANB3 / Fold change vs veh, ZRANB3 / RFU, CUL4A / Fold change vs veh, CUL4A / RFU, CCNY / Fold change vs veh, CCNY / RFU, UFL1 / Fold change vs veh, UFL1 / RFU, COG3 / Fold change vs veh, COG3 / RFU, DIAPH2 / Fold change vs veh, DIAPH2 / RFU, SKA2 / Fold change vs veh, SKA2 / RFU, AFF3 / Fold change vs veh, AFF3 / RFU, LMF1 / Fold change vs veh, LMF1 / RFU, IPO11 / Fold change vs veh, IPO11 / RFU, DFFB / Fold change vs veh, DFFB / RFU, FOXP1 / Fold change vs veh, FOXP1 / RFU, CARD8 / Fold change vs veh, CARD8 / RFU, STRN3 / Fold change vs veh, STRN3 / RFU, ADK / Fold change vs veh, ADK / RFU, RASSF2 / Fold change vs veh, RASSF2 / RFU, WIPF1 / Fold change vs veh, WIPF1 / RFU, LARP1B / Fold change vs veh, LARP1B / RFU, RASA1 / Fold change vs veh, RASA1 / RFU, RB1 / Fold change vs veh, RB1 / RFU, PPFIA1 / Fold change vs veh, PPFIA1 / RFU, MAT2A / Fold change vs veh, MAT2A / RFU, CCT5 / Fold change vs veh, CCT5 / RFU, WDR92 / Fold change vs veh, WDR92 / RFU, CUX1 / Fold change vs veh, CUX1 / RFU, TTC7A / Fold change vs veh, TTC7A / RFU, TMEM135 / Fold change vs veh, TMEM135 / RFU, DEPTOR / Fold change vs veh, DEPTOR / RFU, CPM / Fold change vs veh, CPM / RFU, DNAJB6 / Fold change vs veh, DNAJB6 / RFU, CACNA2D3 / Fold change vs veh, CACNA2D3 / RFU, DTX4 / Fold change vs veh, DTX4 / RFU, TFCP2 / Fold change vs veh, TFCP2 / RFU, GMCL1 /// GMCL1P1 / Fold change vs veh, GMCL1 /// GMCL1P1 / RFU, AEBP2 / Fold change vs veh, AEBP2 / RFU, SNHG1 /// SNORD22 /// SNORD25 /// SNORD26 /// SNORD27 /// SNORD28 /// SNORD29 /// SNORD31 / Fold change vs veh, SNHG1 /// SNORD22 /// SNORD25 /// SNORD26 /// SNORD27 /// SNORD28 /// SNORD29 /// SNORD31 / Fold change (Aza/veh), C12orf56 (ProbeSet 11735607_a_at) / Fold change (ACY-1035/veh), C12orf56 (ProbeSet 11735607_a_at) / Fold change (Aza/veh), FGFR1OP (ProbeSet 11751329_s_at) / Fold change (ACY-1035/veh), FGFR1OP (ProbeSet 11751329_s_at) / Fold change (Aza/veh), VPS36 (ProbeSet 11739960_a_at) / Fold change (ACY-1035/veh), VPS36 (ProbeSet 11739960_a_at) / RFU SYPL1 (11715823_x_at) / Fold change /veh SYPL1 (11715823_x_at) / RFU IGFBP7 (11715501_s_at) / Fold change /veh IGFBP7 (11715501_s_at) / RFU REEP3 (11722064_at) / Fold change /veh REEP3 (11722064_at) / RFU IGLL1 (11728026_x_at) / Fold change /veh IGLL1 (11728026_x_at): dose or concentration left out as unconfirmed.

The record followed here is publication PMC5218480 (PLoS ONE, 2017).

As to `Nc1ccc(-c2cccs2)cc1NC(=O)c1ccc2c(c1)cc(C1CC1)n2CCN1CCOCC1` [ACY-1035], the “Fold change /veh SPINT1 (11716480_a_at)” value turned out to be 1.05.
